From patent US10196381B2, “Benzimidazole-2-piperazine heterocyclic compound, pharmaceutical composition containing the same, preparation method and use thereof” (Shanghai Huilun Life Science & Technology Co., Ltd., priority 2013, dated 2019) come the findings set out here.

The target in the test is PARP-1 enzyme (Homo sapiens (Human), UniProt P09874). The experiment in a line: PARP enzyme activity assay (HT Universal Chemiluminescent PARP Assay Kit, histone-coated wells). In kind it is biochemical. Particulars: for inhibition at 0.03 µM: read-out: Inhibition (%) at 30 nM; for inhibition at 0.1 µM: read-out: Inhibition (%) at 100 nM. On the procedure:
PARP is an enzyme responsible for post-translational modification, which may be activated by means of DNA damage. The process catalyzed by PARP in vivo is mainly NAD-dependent poly(ADP-ribosyl)ation, in which the substrates are mainly some nuclear proteins including PARP, one example of which is histone. In the present invention, the PARP activity is assayed by determining the poly(ADP-ribosyl)ation degree of histone coated in a 96-well plate in the presence of NAD, and the PARP activity under the action of a PARP inhibitor is correspondingly assayed, thereby evaluating the degree of inhibition of the compounds on PARP activity. Poly(ADP-ribosyl)ation of nuclear proteins is a post-translational modification occurred in response to DNA damage. PARP is the abbreviation of poly(ADP-ribose)polymerase, which catalyzes the attachment of poly(ADP-ribose) to an adjacent nuclear protein in the presence of NAD, thus eliciting a mechanism of DNA repair through base excision repair pathway. The level of biotin-labeled ADP-ribose binding to histone can be detected by using the HT Universal Chemiluminescent PARP Assay Kit commercially available from Trevigen Corp. […] HT Universal Chemiluminescent PARP Assay Kit with Histone-coated Strip Wells, commercially available from Trevigen (US), Catalog #: 4676-096-K. […] 4. The PARP enzyme was carefully diluted with the 1×PARP buffer just before use, the diluted enzyme solution should be used as quickly as possible and the remaining solution should be discarded. […] 2. […] 1. […] 2. […] 4. […] After washing, equal volume of the PeroxyGlow A and B solutions were uniformly mixed, 100 μl of the solution was added to each well, and the chemiluminescent signals were recorded on a plate reader immediately. The readout of each well is converted into the percent inhibition. […] Note: the readout of the positive control well is designated as 100% enzyme activity; the readout of the negative control well is designated as 0% enzyme activity; and the activity X refers to the readout from respective concentration of each sample.

Sequence of PARP-1 enzyme (P09874 whole entry): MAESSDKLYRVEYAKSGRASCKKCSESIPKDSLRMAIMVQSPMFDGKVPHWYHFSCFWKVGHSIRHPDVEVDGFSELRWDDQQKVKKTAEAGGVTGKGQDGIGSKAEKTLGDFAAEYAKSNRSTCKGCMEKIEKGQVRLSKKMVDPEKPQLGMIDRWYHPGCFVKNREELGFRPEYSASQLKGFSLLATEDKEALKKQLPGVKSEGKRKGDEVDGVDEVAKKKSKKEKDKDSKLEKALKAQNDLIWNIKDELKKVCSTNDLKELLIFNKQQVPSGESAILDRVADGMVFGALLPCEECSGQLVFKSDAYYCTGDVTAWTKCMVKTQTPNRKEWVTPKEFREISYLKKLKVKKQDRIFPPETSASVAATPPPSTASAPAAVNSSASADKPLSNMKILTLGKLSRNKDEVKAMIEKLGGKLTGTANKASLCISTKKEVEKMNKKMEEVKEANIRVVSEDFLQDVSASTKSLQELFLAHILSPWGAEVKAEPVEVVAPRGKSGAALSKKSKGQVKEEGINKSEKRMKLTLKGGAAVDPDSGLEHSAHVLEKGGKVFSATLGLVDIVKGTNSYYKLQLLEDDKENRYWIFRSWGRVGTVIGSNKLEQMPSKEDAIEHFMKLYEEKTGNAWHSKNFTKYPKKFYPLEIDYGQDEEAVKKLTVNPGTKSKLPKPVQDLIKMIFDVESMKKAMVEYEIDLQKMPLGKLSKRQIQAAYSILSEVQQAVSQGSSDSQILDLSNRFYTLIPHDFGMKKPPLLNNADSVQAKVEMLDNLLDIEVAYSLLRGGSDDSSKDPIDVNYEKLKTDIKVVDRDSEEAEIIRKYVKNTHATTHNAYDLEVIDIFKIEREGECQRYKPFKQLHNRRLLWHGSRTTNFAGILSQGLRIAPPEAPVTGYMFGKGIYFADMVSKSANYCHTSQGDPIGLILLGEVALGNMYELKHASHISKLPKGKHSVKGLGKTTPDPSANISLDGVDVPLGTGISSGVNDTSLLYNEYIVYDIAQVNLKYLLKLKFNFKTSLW

As usually defined, the inhibition is the change of the read-out against control, counted positive when it falls. On to `NC(=O)c1cc(F)cc2[nH]c(N3CCN(c4cnc(C(=O)N5CCCC5)cn4)CC3)nc12` [Compound (29), 6-fluoro-2-(4-(5-(pyrrolin-1-acyl)pyrazin-2-yl)piperazin-1-yl)-1H-benzimidazole-4-carboxamide], for which the inhibition at 0.03 µM stood at 71% and the inhibition at 0.1 µM turned out to be 88%.

Take `NC(=O)c1cc(F)cc2[nH]c(N3CCN(c4cnc(C(=O)N5CCOCC5)cn4)CC3)nc12` [Compound (30), 6-fluoro-2-(4-(5-(morpholin-4-acyl)pyrazin-2-yl)piperazin-1-yl)-1H-benzimidazole-4-carboxamide]: the inhibition at 0.03 µM is 78% and the inhibition at 0.1 µM is 92%.

On to `NC(=O)c1cc(F)cc2[nH]c(N3CCN(c4ccc(C(F)(F)F)nn4)CC3)nc12` [Compound (31), 6-fluoro-2-(4-(6-trifluoromethylpyridazin-3-yl)piperazin-1-yl)-1H-benzimidazole-4-carboxamide], for which the inhibition at 0.03 µM came out at 80% and the inhibition at 0.1 µM is 95%.

Take `NC(=O)c1cc(F)cc2[nH]c(N3CCN(c4ccc(C(F)(F)F)nc4)CC3)nc12` [Compound (32), 6-fluoro-2-(4-(6-trifluoromethylpyridine-3-yl)piperazin-1-yl)-1H-benzimidazole-4-carboxamide]: the inhibition at 0.03 µM is 66% and the inhibition at 0.1 µM is 84%.

With `NC(=O)c1cc(F)cc2[nH]c(N3CCN(c4cnc(C(F)(F)F)nc4)CC3)nc12` [Compound (33), 6-fluoro-2-(4-(2-trifluoromethylpyrimidin-5-yl)piperazin-1-yl)-1H-benzimidazole-4-carboxamide], the inhibition at 0.03 µM was found to be 88% and the inhibition at 0.1 µM is 98%.

Take `NC(=O)c1cc(F)cc2[nH]c(N3CCN(c4ncc(C(F)(F)F)cn4)CC3)nc12` [Compound (34), 6-fluoro-2-(4-(5-trifluoromethylpyrimidin-2-yl)piperazin-1-yl)-1H-benzimidazole-4-carboxamide]: the inhibition at 0.03 µM is 36% and the inhibition at 0.1 µM was 60%.

On to `NC(=O)c1cc(F)cc2[nH]c(N3CCN(c4cnc(C(F)(F)F)cn4)CC3)nc12` [Compound (35), 6-fluoro-2-(4-(5-trifluoromethylpyrazin-2-yl)piperazin-1-yl)-1H-benzimidazole-4-carboxamide], for which the inhibition at 0.03 µM is 76% and the inhibition at 0.1 µM worked out at 91%.

For `CN(C)C(=O)c1cnc(N2CCN(c3nc4c(C(N)=O)cc(F)cc4[nH]3)CC2)cn1` [Compound (36), 2-(4-(5-dimethylcarbamoylpyrazin-2-yl)piperazin-1-yl)-6-fluoro-1H-benzimidazole-4-carboxamide], the inhibition at 0.03 µM turned out to be 83% and the inhibition at 0.1 µM amounted to 92%.

Regarding `N#Cc1cnc(N2CCN(c3nc4c(C(N)=O)cc(F)cc4[nH]3)CC2)cn1` [Compound (37), 2-(4-(5-cyanopyrazin-2-yl)piperazin-1-yl)-6-fluoro-1H-benzimidazole-4-carboxamide], the inhibition at 0.03 µM came out at 87% and the inhibition at 0.1 µM worked out at 98%.

For the compound `N#Cc1ncc(N2CCN(c3nc4c(C(N)=O)cc(F)cc4[nH]3)CC2)cn1` [Compound (38), 2-(4-(2-cyanopyrimidin-5-yl)piperazin-1-yl)-6-fluoro-1H-benzimidazole-4-carboxamide], the inhibition at 0.03 µM was 84% and the inhibition at 0.1 µM stood at 95%.

Regarding `CNC(=O)c1ncc(N2CCN(c3nc4c(C(N)=O)cc(F)cc4[nH]3)CC2)cn1` [Compound (39)], the inhibition at 0.03 µM is 78% and the inhibition at 0.1 µM came to 92%.

On to `CCNC(=O)c1ncc(N2CCN(c3nc4c(C(N)=O)cc(F)cc4[nH]3)CC2)cn1` [Compound (40), 2-(4-(2-ethylcarbamoylpyrimidin-5-yl)piperazin-1-yl)-6-fluoro-1H-benzimidazole-4-carboxamide], for which the inhibition at 0.03 µM was determined as 77% and the inhibition at 0.1 µM was determined as 93%.

Turning to `CN(C)C(=O)c1ncc(N2CCN(c3nc4c(C(N)=O)cc(F)cc4[nH]3)CC2)cn1` [Compound (41), 2-(4-(2-dimethylcarbamoylpyrimidin-5-yl)piperazin-1-yl)-6-fluoro-1H-benzimidazole-4-carboxamide], the inhibition at 0.03 µM amounted to 75% and the inhibition at 0.1 µM was 92%.
